Results: US20060223837A1 (priority 2005, published 2006)

Key:
chronic arthritis = details: tail vein model; cited from earlier work
cough = details: capsaicin and citric acid induced cough, guinea pig; cited from earlier work
neuropathic pain = details: chronic constriction injury rodent neuropathic pain model; cited from earlier work
[1] = system: CFA-induced mechanical hyperalgesia; details: literature; cited from earlier work
[2] = system: dextran sulfate induced colitis; details: animal model; cited from earlier work
human VR1 [3] = target: T1, human VR1 (Homo sapiens, UniProt Q8NER1); test: Human VR1 [3H]RTX binding assay; details: for h Binding % I (1 μM) / inhibition at 1 µM: inhibition of [3H]RTX binding at 1 μM; for Ki: [3H]RTX binding, HEK293 membranes; for inhibition at 1 µM: read-out: h Binding % I (1 μM)
T1 construct: expressed in transfected cells; host or cells: HEK293
Procedure, shortened: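 Inhibition of [3H]resiniferatoxin binding measured on HEK293-hVR1 membranes over 60 min at 37 C, pH 7.4 HEPES buffer containing BSA. Pellet radioactivity counted; 200 nM cold RTX gave nonspecific binding. % inhibition computed and Ki derived from duplicate measurements.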

human VR1 [4] = target: T1, human VR1; test: Human VR1 functional assay (FLIPR intracellular Ca2+); type: cell-based; details: for IC50: antagonism of capsaicin-induced Ca2+ increase, read-out: h IC50; for inhibition at 5 µM: read-out: h % I (5 μM); for inhibition at 1 µM: read-out: h % I (1 μM); for Emax at 12 µM: read-out: % Response Relative to EC80 of Capsaicin (12 μM)
Procedure, shortened: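 Read-out was Ca2+-dye fluorescence by FLIPR: compounds at varying concentrations were added to dye-loaded human VR1 HEK293 cells and monitored 5 min before capsaicin addition ([…], approx. EC80). Dose-response data, averaged over four wells, gave EC50 or IC50.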

[5] = inhibition of capsaicin response

T1 sequence (Q8NER1 whole entry): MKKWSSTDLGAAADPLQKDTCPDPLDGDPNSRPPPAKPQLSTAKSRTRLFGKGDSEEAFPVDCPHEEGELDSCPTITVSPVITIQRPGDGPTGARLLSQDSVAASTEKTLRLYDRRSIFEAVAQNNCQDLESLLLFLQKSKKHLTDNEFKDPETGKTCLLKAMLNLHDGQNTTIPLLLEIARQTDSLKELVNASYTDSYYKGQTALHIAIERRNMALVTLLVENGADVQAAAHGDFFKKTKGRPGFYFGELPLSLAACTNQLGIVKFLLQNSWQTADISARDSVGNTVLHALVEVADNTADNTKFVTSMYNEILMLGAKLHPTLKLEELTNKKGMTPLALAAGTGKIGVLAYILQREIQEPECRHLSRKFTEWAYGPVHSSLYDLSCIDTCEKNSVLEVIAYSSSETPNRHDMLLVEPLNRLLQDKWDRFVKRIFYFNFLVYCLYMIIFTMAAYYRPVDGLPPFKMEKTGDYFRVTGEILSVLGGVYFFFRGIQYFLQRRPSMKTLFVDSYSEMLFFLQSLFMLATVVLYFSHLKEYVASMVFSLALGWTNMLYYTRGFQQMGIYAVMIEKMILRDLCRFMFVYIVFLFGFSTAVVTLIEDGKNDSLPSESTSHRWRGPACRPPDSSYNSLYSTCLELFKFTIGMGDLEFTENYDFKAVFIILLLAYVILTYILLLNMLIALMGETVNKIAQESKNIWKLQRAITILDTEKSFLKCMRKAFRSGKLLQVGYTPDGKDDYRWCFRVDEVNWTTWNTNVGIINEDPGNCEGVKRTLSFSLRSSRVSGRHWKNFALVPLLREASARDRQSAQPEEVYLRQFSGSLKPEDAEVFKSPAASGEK

CN1CC[C@]23c4c5ccc(O)c4O[C@H]2[C@@H](O)C=C[C@H]3[C@H]1C5 [morphine]
pain relief (chronic arthritis): fully relieved pain

COc1ccc2c(c1)c(CC(=O)O)c(C)n2C(=O)c1ccc(Cl)cc1 [indomethacin]
pain relief (chronic arthritis): partially effective

C=C(C)[C@]12C[C@@H](C)[C@@]34O[C@](Cc5ccccc5)(O[C@@H]1[C@@H]3C=C(COC(=O)Cc1cc(I)c(O)c(OC)c1)C[C@]1(O)C(=O)C(C)=C[C@@H]41)O2 [iodo-resiniferatoxin]
antitussive action (cough): antitussive action

COc1cccc(C2(O)CCCCC2CN(C)C)c1 (stereo not shown) [tramadol]
pain relief (chronic arthritis): fully relieved pain

CC(C)(C)c1ccc(NC(=O)N2CCN(c3ncccc3Cl)CC2)cc1 [BCTC]
effect on mechanical hyperalgesia and tactile allodynia (neuropathic pain): reduced mechanical hyperalgesia and tactile allodynia
effect on hyperalgesia [1]: reduced hyperalgesia

Nc1ccc(O)c(C(=O)O)c1 [5-ASA]
protection against colitis [2]: protects against dextran sulfate induced colitis

O=C(O)Cc1ccccc1Nc1c(Cl)cccc1Cl [diclofenac]
effect on hyperalgesia [1]: reversed the hyperalgesic effect of zymosan
pain relief (chronic arthritis): partially effective

NC(=O)c1cccc(-c2ccc(NC(=O)CCc3ccc(C(F)(F)F)cc3)c3ccccc23)c1 [Cpd 83]
h Binding % I (1 μM) (human VR1 [3]): 1%
h % I (5 μM) (human VR1 [4]; [5]): 31%

O=C(CCc1ccc(C(F)(F)F)cc1)Nc1cnc(-n2ccnc2)c(C(F)(F)F)c1 [Cpd 240]
Ki (human VR1 [3]): 3.85 µM
IC50 (human VR1 [4]): 0.379 µM
inhibition at 5 µM (human VR1 [4]; [5]): 101%

CC(C)(C)c1ccc(CCC(=O)Nc2ccc(-c3ccc(CO)cc3)c(CO)c2)cc1 [Cpd 96]
Ki (human VR1 [3]): 0.077 µM
Emax at 6 µM (human VR1 [4]; agonist response, 6 μM, read-out: % Response Relative to EC80 of Capsaicin (6 μM)): 65%
inhibition at 1 µM (human VR1 [4]; [5]): 91%

CC(C)(C)c1ccc(CCC(=O)Nc2ccc(-c3cccc(C(N)=O)c3)c(C(=O)O)c2)cc1 [Cpd 72]
h Binding % I (1 μM) (human VR1 [3]): 1%
h % I (10 μM) (human VR1 [4]; inhibition of capsaicin response, 10 μM): 11%

O=C(CCc1ccc(C(F)(F)F)cc1)Nc1ccc(-c2ccc(CO)cc2)nc1 [Cpd 150]
Ki (human VR1 [3]): 0.149 µM
inhibition at 1 µM (human VR1 [3]): 75%
Emax at 12 µM (human VR1 [4]; agonist response, 12 μM): 79%

CC(C)(C)c1ccc(CCC(=O)Nc2ccc(-c3ccncc3)c3ccccc23)cc1 [Cpd 153]
h Binding % I (1 μM) (human VR1 [3]): 1%
h % I (5 μM) (human VR1 [4]; [5]): 25%

Cc1cc(NC(=O)CCc2ccc(C(C)(C)C)cc2)ccc1-c1ccc(CO)cc1 [Cpd 99]
Ki (human VR1 [3]): 0.029 µM
IC50 (human VR1 [4]): 0.209 µM
inhibition at 1 µM (human VR1 [4]; [5]): 97%
inhibition at 5 µM (human VR1 [4]; [5]): 79%

CC(C)(C)c1ccc(CCC(=O)Nc2ccc(-c3cccc(O)c3)cc2)cc1 [Cpd 62]
h Binding % I (1 μM) (human VR1 [3]): 23%
h % I (5 μM) (human VR1 [4]; [5]): 16%

Cn1cnc(-c2ccc(NC(=O)CCc3ccc(C(C)(C)C)cc3)cc2)c1 [Cpd 190]
h Binding % I (1 μM) (human VR1 [3]): 56%
h % I (5 μM) (human VR1 [4]; [5]): 98%

CC(C)(C)c1ccc(CCC(=O)Nc2ccccc2-c2ccccn2)cc1 [Cpd 108]
inhibition at 1 µM (human VR1 [3]): 16%
Emax at 12 µM (human VR1 [4]; agonist response, 12 μM): 98%
EC50 (human VR1 [4]; agonist-induced Ca2+ increase, read-out: h EC50): 0.935 µM

CC(=O)Nc1cccc(-c2ccc(NC(=O)CCc3ccc(C(F)(F)F)cc3)cn2)c1 [Cpd 145]
h Binding % I (1 μM) (human VR1 [3]): 16%
% Response Relative to EC80 of Capsaicin (12 μM) (human VR1 [4]; agonist response, 12 μM): 92%
